From PMC6271477, “Effects of Single Amino Acid Substitution on the Biophysical Properties and Biological Activities of an Amphipathic α-Helical Antibacterial Peptide Against Gram-Negative Bacteria” (Molecules, 2014)

Legend:
[1] = Analytical RP-HPLC retention time as a measure of peptide hydrophobicity; assay type: physicochemical; details: RP-HPLC at 25 °C, Zorbax 300 SB-C8 column, linear AB gradient, A 0.1% aqueous TFA, B 0.1% TFA in acetonitrile, 1 mL/min, detection at 210 nm
Method: Among substitutions, the retention times ranged from 32.2 min (peptide V16K) to 40.4 min (peptide V16L), which reflect the pure effects of single amino acid substitutions. Thus, the retention times of peptides reflect the relative hydrophobicity of side chains. Consistent with previous studies, the hydrophobicity of peptide analogs was generally in the following order: Lys < Gly < Ser < Ala < Val < Leu. Glu-substituted peptide was an exception, as it contains a negatively-charged side chain and this should decrease the hydrophobicity of the peptide dramatically.
Peptides were analyzed on a Shimadzu LC-20A HPLC using a Zorbax 300 SB-C8 column (150 ° 4.6 mm i.d., 5 μm particle size, 300 Å pore size) from Agilent Technologies using a linear AB gradient and a flow rate of 1 mL/min, where solvents A and B were as described above. Absorbance signals of peptides were detected at 210 nm.

[2] = CD spectroscopy, helicity in benign buffer and in 50% TFE; assay type: physicochemical; details: for [θ]222, mean residue molar ellipticity, benign / [θ]222, mean residue molar ellipticity, 50% TFE: CD at 222 nm, peptide 75 μM; for [θ]222, mean residue molar ellipticity, benign / [θ]222, mean residue molar ellipticity, 50% TFE / % helix, 50% TFE: 25 °C; for [θ]222, mean residue molar ellipticity, benign: KP buffer (100 mM KCl, 50 mM K2HPO4/KH2PO4, pH 7.0); for [θ]222, mean residue molar ellipticity, 50% TFE / % helix, 50% TFE: KP buffer diluted 1:1 (v/v) with TFE; for % helix, 50% TFE / % helix, benign: relative to the molar ellipticity of peptide V16E in 50% TFE; for % helix, benign: KP buffer pH 7.0, 25 °C
Method: The secondary structures of peptides were determined in benign buffer and in a hydrophobic environment (50% trifluoroethanol, TFE) to mimic the hydrophobic environment of the membrane. […] The principle of side chain interaction at the i to i + 3 and i to i + 4 positions has been used to promote α-helix stability, for example, the incorporation of Lys and Glu residues to stabilize electrostatic attractions. Thus, the helicity of peptide V16E in the presence of 50% TFE that presented the greatest value among all analogs should rely on the contribution of the electrostatic attraction of the side chain of K13 and E16, which stabilizes the helix. The relative helicity is 100% for peptide V16E in 50% TFE, showing the importance of the salt bridges of K13 and E16 to stabilize the helical structure. In general, subtle side-chain alterations by single amino acid substitutions made no significant changes on secondary structures both in aqueous and in hydrophobic environments (Table 2).
Circular dichroism spectra were measured with a 0.02 cm path length quartz cuvette on a Jasco J-810 spectropolarimeter (Jasco, Tokyo, Japan) at 25 °C. Data were collected from 250 to 190 nm at a sensitivity of 100 millidegrees, response time of 1 s, bandwidth of 1.0 nm and a scan speed of 100 nm/min. Peptides were measured at a concentration of 75 μM in a benign buffer (50 mM KH2PO4/K2HPO4, 100 mM KCl, pH 7) or the benign buffer mixed with 50% 2,2,2-trifluoroethanol (TFE). The mean residue molar ellipticities were calculated using the equation [θ] = θ/10lcMn, where θ is the ellipticity in millidegrees, l is the optical path length of the cuvette in centimeters, cM is the peptide concentration in mole/liter and n is the number of residues in the peptide.

E. coli ATCC25922 = assay type: cell-based; details: ATCC25922, 24 h
Method: (§1) Minimal inhibitory concentrations (MIC) were determined using a broth dilution method. Briefly, bacteria were grown overnight at 37 °C in Mueller–Hinton (MH) Broth, diluted in the same medium and transferred into 96-well microtiter plates (90 μL/well). Peptides were serially diluted using 0.2% bovine serum albumin containing 0.01% acetic acid and added to the microtiter plates in a volume of 10 μL per well to give a final concentration of 5 × 10^5 CFU/mL. MICs were defined as the lowest peptide concentration that inhibited bacterial growth after incubation for 24 h at 37 °C.

E. coli Clinical Isolate = assay type: cell-based; details: Clinical Isolate, 24 h
Method: as §1

P. aeruginosa ATCC27853 = assay type: cell-based; details: ATCC27853, 24 h
Method: as §1

P. aeruginosa H188 = assay type: cell-based; details: H188, 24 h
Method: as §1

E. coli DH5α = test: MIC by broth dilution; assay type: cell-based; details: MH broth, 5 × 10^5 CFU/mL, 24 h at 37 °C
Method: as §1

[3] = Tryptophan fluorescence, binding to lipid vesicles; details: for Tryptophan fluorescence emission maximum: excitation 280 nm
Method: Upon peptide diffusion into the cytoplasmic membrane, evidence of selective interaction between peptides with bacterial versus mammalian cytoplasmic membrane was illustrated by the binding events of the peptides to anionic or zwitterionic lipid vesicles. […] Lipid/peptide (L/P) ratios were maintained high enough at low peptide concentration (2 μM) in order to mimic the initial steps of peptide-membrane binding. The spectra were recorded as shown in Supplementary Figure S1. […] The significant blue shifts of Δλmax (17 to 23 nm) for all peptides upon exposure to PC/PG vesicles indicated a membrane partition state of Trp in negatively charged vesicles containing 30% anionic lipids (PG).
Unilamellar vesicles were prepared by a standard procedure with either PC/PG (7:3, w/w) or PC/cholesterol (8:1, w/w) as described previously. Briefly, the desired mixtures of lipids were dissolved in a chloroform/methanol mixture (2:1, v/v), dried under nitrogen and then lyophilized for 24 h to remove traces of organic solvent. Dry lipid films were suspended in 10 mM HEPES buffer containing 150 mM NaCl (pH 7.4) by vortex mixing. After five freeze-thawing cycles, the suspension was extruded 15 times through double polycarbonate membranes with 0.1 μm diameter pores on an Avanti mini-extruder apparatus. The lipid concentration was determined by phosphorus analysis as previously reported.
(§2) Fluorescence emission spectra of peptide Trp residues were monitored by a Shimadzu RF-5301 spectrofluorometer. The excitation of wavelength was set as 280 nm and the emission spectra of each peptide, with or without lipid vesicles, were recorded between 300 and 450 nm. Thus three curves were recorded for each peptide, in HEPES buffer or with either PC/PG vesicles or PC/cholesterol vesicles. The blue shift of Trp residues in vesicles were referred to in buffer condition. The final concentrations of peptide and lipid were 2 μM and 100 μM (1/50), respectively.

[4] = Tryptophan fluorescence in HEPES buffer; assay type: physicochemical; details: peptide 2 μM, excitation 280 nm
Excerpt: Upon peptide diffusion into the cytoplasmic membrane, evidence of selective interaction between peptides with bacterial versus mammalian cytoplasmic membrane was illustrated by the binding events of the peptides to anionic or zwitterionic lipid vesicles. The repositioning of the tryptophan indole group in an environment of reduced polarity upon membrane binding results in a blue shift in the fluorescence […] maximum coupled with an enhancement of emission intensity. Lipid/peptide (L/P) ratios were maintained high enough at low peptide concentration (2 μM) in order to mimic the initial steps of peptide-membrane binding. The spectra were recorded as shown in Supplementary Figure S1. […] The significant blue shifts of Δλmax (17 to 23 nm) for all peptides upon exposure to PC/PG vesicles indicated a membrane partition state of Trp in negatively charged vesicles containing 30% anionic lipids (PG).
as §2

[5] = PC/PG (7:3, w/w) vesicles versus HEPES buffer, lipid:peptide 50:1, peptide 2 μM
[6] = PC/PG (7:3, w/w) vesicles, lipid and peptide in a molar ratio of 50:1, peptide 2 μM, lipid 100 μM
[7] = PC/cholesterol (8:1, w/w) vesicles versus HEPES buffer, peptide 2 μM, lipid 100 μM
[8] = PC/cholesterol (8:1, w/w) vesicles, peptide 2 μM, lipid 100 μM

Which results are given for “Ac-KWKSFLKTFKSAKKTALHTALKAISS-NH2 [Peptide V16A]”?
tR, retention time during RP-HPLC (relative hydrophobicity) [1]: 36.6 min; [θ]222, mean residue molar ellipticity, benign [2]: −3,057 degree·cm^2·dmol^−^1; [θ]222, mean residue molar ellipticity, 50% TFE [2]: −28,769 degree·cm^2·dmol^−^1; % helix, 50% TFE [2]: 95.7%; % helix, benign [2]: 10.2%; MIC (E. coli ATCC25922): 2 µg/mL; MIC (E. coli Clinical Isolate): 1 µg/mL; MIC (P. aeruginosa ATCC27853): 4 µg/mL; MIC (P. aeruginosa H188): 4 µg/mL; MIC (E. coli DH5α): 4 µg/mL; Blue shift in emission maximum [3, 5]: 22 nm; Tryptophan fluorescence emission maximum [3, 6]: 328 nm; Blue shift in emission maximum [3, 7]: 1 nm; Tryptophan fluorescence emission maximum [3, 8]: 349 nm; Tryptophan fluorescence emission maximum [4]: 350 nm

For “Ac-KWKSFLKTFKSAKKTELHTALKAISS-NH2 [Peptide V16E]”, which “tR, retention time during RP-HPLC (relative hydrophobicity)” value (“tR … (relative hydrophobicity)” for short) [1] is on record?
Its value is 34.6 min.

And the “[θ]222, mean residue molar ellipticity, benign” value [2]?
The value was −3,465 degree·cm^2·dmol^−^1.

What about the “[θ]222, mean residue molar ellipticity, 50% TFE” value [2] of the same substance?
The value was −30,063 degree·cm^2·dmol^−^1.

And the “% helix, 50% TFE” value [2]?
Its value is 100%.

What about the “% helix, benign” value [2] of the same substance?
The value was 11.5%.

And the MIC (E. coli ATCC25922)?
Its MIC is 16 µg/mL.

And the MIC (E. coli Clinical Isolate)?
Its MIC is 125 µg/mL.

And the MIC (P. aeruginosa ATCC27853)?
Its MIC is 125 µg/mL.

What about the MIC (P. aeruginosa H188) of the same substance?
The MIC was 64 µg/mL.

What about the MIC (E. coli DH5α) of the same substance?
Its MIC is 64 µg/mL.

What about the “Blue shift in emission maximum” value [3, 5] of the same substance?
The value was 17 nm.

What about the “Tryptophan fluorescence emission maximum” value [3, 6] of the same substance?
Its value is 333 nm.

What about the “Blue shift in emission maximum” value [3, 7] of the same substance?
Its value is 1 nm.

And the “Tryptophan fluorescence emission maximum” value [3, 8]?
Its value is 349 nm.

What about the “Tryptophan fluorescence emission maximum” value [4] of the same substance?
The value was 350 nm.

Which results are given for “Ac-KWKSFLKTFKSAKKTGLHTALKAISS-NH2 [Peptide V16G]”?
tR, retention time during RP-HPLC (relative hydrophobicity) [1]: 33.6 min; [θ]222, mean residue molar ellipticity, benign [2]: −2,839 degree·cm^2·dmol^−^1; [θ]222, mean residue molar ellipticity, 50% TFE [2]: −27,857 degree·cm^2·dmol^−^1; % helix, 50% TFE [2]: 92.7%; % helix, benign [2]: 9.4%; MIC (E. coli ATCC25922): 8 µg/mL; MIC (E. coli Clinical Isolate): 16 µg/mL; MIC (P. aeruginosa ATCC27853): 32 µg/mL; MIC (P. aeruginosa H188): 8 µg/mL; MIC (E. coli DH5α): 8 µg/mL; Blue shift in emission maximum [3, 5]: 21 nm; Tryptophan fluorescence emission maximum [3, 6]: 329 nm; Blue shift in emission maximum [3, 7]: 1 nm; Tryptophan fluorescence emission maximum [3, 8]: 349 nm; Tryptophan fluorescence emission maximum [4]: 350 nm

For “Ac-KWKSFLKTFKSAKKTLLHTALKAISS-NH2 [Peptide V16L]”, which “tR … (relative hydrophobicity)” value [1] is on record?
Its value is 40.4 min.

And the “[θ]222, mean residue molar ellipticity, benign” value [2]?
The value was −3,595 degree·cm^2·dmol^−^1.

And the “[θ]222, mean residue molar ellipticity, 50% TFE” value [2]?
The value was −29,803 degree·cm^2·dmol^−^1.

And the “% helix, 50% TFE” value [2]?
Its value is 99.1%.

What about the “% helix, benign” value [2] of the same substance?
The value was 12.0%.

What about the MIC (E. coli ATCC25922) of the same substance?
Its MIC is 1 µg/mL.

And the MIC (E. coli Clinical Isolate)?
The MIC was 1 µg/mL.

What about the MIC (P. aeruginosa ATCC27853) of the same substance?
The MIC was 2 µg/mL.

What about the MIC (P. aeruginosa H188) of the same substance?
Its MIC is 2 µg/mL.

And the MIC (E. coli DH5α)?
The MIC was 4 µg/mL.

And the “Blue shift in emission maximum” value [3, 5]?
The value was 23 nm.

And the “Tryptophan fluorescence emission maximum” value [3, 6]?
Its value is 326 nm.

And the “Blue shift in emission maximum” value [3, 7]?
The value was 2 nm.

What about the “Tryptophan fluorescence emission maximum” value [3, 8] of the same substance?
Its value is 348 nm.

What about the “Tryptophan fluorescence emission maximum” value [4] of the same substance?
Its value is 350 nm.

For “Ac-KWKSFLKTFKSAKKTSLHTALKAISS-NH2 [Peptide V16S]”, which “tR … (relative hydrophobicity)” value [1] is on record?
Its value is 34.3 min.

What about the “[θ]222, mean residue molar ellipticity, benign” value [2] of the same substance?
Its value is −1,760 degree·cm^2·dmol^−^1.

What about the “[θ]222, mean residue molar ellipticity, 50% TFE” value [2] of the same substance?
The value was −28,949 degree·cm^2·dmol^−^1.

And the “% helix, 50% TFE” value [2]?
Its value is 96.3%.

What about the “% helix, benign” value [2] of the same substance?
The value was 5.9%.

And the MIC (E. coli ATCC25922)?
Its MIC is 8 µg/mL.

What about the MIC (E. coli Clinical Isolate) of the same substance?
Its MIC is 16 µg/mL.

What about the MIC (P. aeruginosa ATCC27853) of the same substance?
Its MIC is 32 µg/mL.

And the MIC (P. aeruginosa H188)?
Its MIC is 4 µg/mL.

What about the MIC (E. coli DH5α) of the same substance?
Its MIC is 8 µg/mL.

And the “Blue shift in emission maximum” value [3, 5]?
Its value is 22 nm.

What about the “Tryptophan fluorescence emission maximum” value [3, 6] of the same substance?
Its value is 328 nm.

And the “Blue shift in emission maximum” value [3, 7]?
Its value is 1 nm.

And the “Tryptophan fluorescence emission maximum” value [3, 8]?
Its value is 349 nm.

And the “Tryptophan fluorescence emission maximum” value [4]?
Its value is 350 nm.
